From article PMC11680018, “Study of Cytotoxicity of Spiro-Fused [3-Azabicyclo[3.1.0]hexane]oxindoles and Cyclopropa[a]pyrrolizidine-oxindoles Against Tumor Cell Lines” (Pharmaceuticals, 2024)
Read-outs that look alike come from different tables or passages of the source.

Legend:
[1] = tested on: peripheral blood mononuclear cells (PBMC); experiment: MTS cytotoxicity towards normal cells, PBMC; format: cell-based; conditions: Homo sapiens
Description: (§1) Cancer cell lines are valuable in vitro model systems that are widely used in cancer research and drug discovery. Their use is mainly linked to their possibility to provide for experimental purposes an unlimited source of biological material. Here, the 24 and 72 h in vitro MTS assay was used to determine the antiproliferative activity of synthesized spiro-fused cyclopropa[a]pyrrolizidine-2,3′-oxindoles and [3-azabicyclo[3.1.0]hexane]-oxindoles against human erythroleukemia (K562), acute T cell leukemia (Jurkat), cervical carcinoma (HeLa), melanoma (Sk-mel-2), breast cancer adenocarcinoma (MCF-7) as well as mouse colon carcinoma (CT26) cell lines. […] The full results of these investigations are presented in the Supporting Information Figures S1–S6. […] An evaluation of the cytotoxicity of the selected compounds towards normal cells (peripheral blood mononuclear cells) was performed additionally to understand their respective relative selectivities. The selectivity index was obtained using the ratio of measured cytotoxicity between the PBMC cells and each of the cancer cell lines, and the results are presented in Table 3.
(§2) The human erythroleukemia (K-562), cervical carcinoma (HeLa) as well as mouse colon carcinoma (CT26) cell lines were obtained from the Bank of Cell Cultures of the Institute of Cytology of the Russian Academy of Sciences; the human melanoma (Sk-mel-2) cell line was obtained from the Bank of Cell Cultures of the Institute of Cytology and Genetics, Siberian Branch of the Russian Academy of Sciences. The acute T cell leukemia (Jurkat) cell line was obtained from the Bank of Cell Cultures of the Institute of Immunology of the Russian Academy of Medical Sciences. The peripheral blood mononuclear cells (PBMC) were isolated from the blood of healthy donors. K-562, Jurkat, MCF-7, PBMC and CT26 cells were grown on RPMI medium (Hyclone, GE Healthcare Life Sciences, Logan, UT, USA) supplemented with 10% (v/v) fetal bovine serum (Hyclone, GE Healthcare Life Sciences, Logan, UT, USA) and gentamicin (Sigma-Aldrich, St. Louis, MO, USA) at 37 °C in a humidified atmosphere with 5% CO2. HeLa and Sk-mel-2 cells were cultured with the same supplements and conditions in DMEM medium (Hyclone, GE Healthcare Life Sciences, Logan, UT, USA).
(§3) To evaluate the in vitro toxicity of the compounds synthesized, cells were seeded into 96-well plates at a density of 5 × 10^3 cells per well. On the next day, the tested compounds were added to the wells at concentrations ranging from 1 to 30 μg/mL, followed by incubation for 1 and 3 days. Cell proliferation was determined by adding 20 μL of MTS reagent (BioVision, Milpitas, CA, USA) stock solution per well. The plates were incubated for 2 h at 37 °C in a humidified, 5% CO2 atmosphere. The plates were then read at 495 nm using a plate spectrophotometer (Multiskan GO, Thermo Fisher Scientific, Waltham, MA, USA). All samples were measured in triplicate.

[2] = tested on: mouse colon carcinoma (CT26) cell line; experiment: MTS cell proliferation assay, CT26; format: cell-based; conditions: for IC50: Mus musculus, MTS; for SI (selectivity index) CT26: ratio of cytotoxicity PBMC / CT26, calculated at 72 h
Description: as §1, §2, §3

[3] = tested on: breast cancer adenocarcinoma (MCF-7) cell line; experiment: MTS cell proliferation assay, MCF-7; format: cell-based, human; conditions: for IC50: Homo sapiens, MTS; for SI (selectivity index) MCF-7: ratio of cytotoxicity PBMC / MCF-7, calculated at 72 h
Description: as §1, §2, §3

[4] = tested on: HeLa cells actin cytoskeleton; experiment: Actin cytoskeleton staining, confocal microscopy, HeLa; format: cell-based, human; conditions: 10 μg/mL, 24 h; for HeLa cells with filopodia-like deformations: control cells 93%, lowest value over the compounds; for HeLa cells with granular actin distributed diffusely in the cytoplasm (stress fibers disappeared): maximum over the compounds
Description: It was found using confocal microscopy that incubation with spiro-fused [3-azabicyclo[3.1.0]hexane]oxindoles 4, 8, 17, 18, 22, 24 and cyclopropa[a]pyrrolizidine-2,3′-oxindole 2 led to significant changes in the HeLa cells’ actin cytoskeleton structure leading to the disappearance of stress fibers (granular actin was distributed diffusely in the cytoplasm in up to 38% of treated cells) and changes in the number of filopodia-like deformations (reduced from 93% in control cells to 64% after treatment). The impact on the Sk-mel-2 cells’ actin cytoskeleton structure was even greater: granular actin was distributed diffusely in the cytoplasm in up to 90% of treated cells while the number of filopodia-like deformations was reduced by up to 23%. Such changes in the cytoskeleton may indicate a change in the motor activity of cells, which may indicate a decrease in the ability of tumor cells to metastasize.
HeLa cells were seeded at a density of 2 × 10^5 cells per dish onto a petri dish with cover slips and incubated for 24 h. After that, cells were treated with chosen compounds (10 μg/mL) for 24 h. The medium was removed and cells were fixed with 4% paraformaldehyde (Sigma-Aldrich, St. Louis, MO, USA), washed three times with PBS, and permeabilized with 0.3% Triton-X100 (Sigma-Aldrich, St. Louis, MO, USA). The cells were rinsed three times with PBS. Actin filaments (microfilaments) were stained with rhodamine–phalloidin (Invitrogen, Carlsbad, CA, USA) at 37 °C for 15 min. The samples were rinsed three times with PBS, followed by embedding in Fluoroshield medium (Sigma-Aldrich, St. Louis, MO, USA). Cells were imaged using an Axio Observer Z1 confocal microscope (Carl Zeiss MicroImaging GmbH, Jena, Germany). In each experiment, at least 30 cells were imaged. Images were analyzed by a pathologist blinded to the treatment mode used for each group using ImageJ software, 1.52v.

[5] = tested on: acute T cell leukemia (Jurkat) cell line; experiment: MTS cell proliferation assay, Jurkat; format: cell-based, human; conditions: for IC50: Homo sapiens, Jurkat, MTS; for SI (selectivity index) Jurkat: ratio of cytotoxicity PBMC / Jurkat, calculated at 72 h
Description: as §1, §2, §3

[6] = tested on: human erythroleukemia (K562) cell line; experiment: MTS cell proliferation assay, K562; format: cell-based; conditions: for IC50: Homo sapiens, MTS; for SI (selectivity index) K562: ratio of cytotoxicity PBMC / K562, calculated at 72 h
Description: as §1, §2, §3

[7] = tested on: cervical carcinoma (HeLa) cell line; experiment: MTS cell proliferation assay, HeLa; format: cell-based, human; conditions: for IC50: Homo sapiens, HeLa, MTS; for SI (selectivity index) HeLa: ratio of cytotoxicity PBMC / HeLa, calculated at 72 h
Description: as §1, §2, §3

[8] = tested on: melanoma (Sk-mel-2) cell line; experiment: MTS cell proliferation assay, Sk-mel-2; format: cell-based, human; conditions: for IC50: Homo sapiens, MTS; for SI (selectivity index) Sk-mel-2: ratio of cytotoxicity PBMC / Sk-mel-2, calculated at 72 h
Description: as §1, §2, §3

[9] = read-out: IC50 CT26 24 h, CT26, 24 h
[10] = CT26, 72 h, read-out: IC50 CT26 72 h
[11] = MCF7, read-out: IC50 MCF-7 24 h, MCF-7, 24 h
[12] = MCF7, MCF-7, 72 h, read-out: IC50 MCF-7 72 h
[13] = read-out: IC50 Jurkat 24 h, 24 h
[14] = 72 h, read-out: IC50 Jurkat 72 h
[15] = read-out: IC50 K562 24 h, K562, 24 h
[16] = K562, 72 h, read-out: IC50 K562 72 h
[17] = read-out: IC50 Sk-mel-2 24 h, Sk-mel-2, 24 h
[18] = Sk-mel-2, 72 h, read-out: IC50 Sk-mel-2 72 h

SMILES | IC50 ([1]; 72 h, read-out: IC50 PBMC 72 h) [µM] | IC50 ([1]; read-out: IC50 PBMC 24 h, 24 h) [µM] | IC50 [2, 9] [µM] | IC50 [2, 10] [µM] | SI (selectivity index) CT26 [2] | IC50 [3, 11] [µM] | IC50 [3, 12] [µM] | SI (selectivity index) MCF-7 [3] | HeLa cells with filopodia-like deformations [4] [%] | HeLa cells with granular actin distributed diffusely in the cytoplasm (stress fibers disappeared) [4] | IC50 [5, 13] [µM] | IC50 [5, 14] [µM] | SI (selectivity index) Jurkat [5] | IC50 [6, 15] [µM] | IC50 [6, 16] [µM] | SI (selectivity index) K562 [6] | IC50 ([7]; read-out: IC50 HeLa 24 h, 24 h) [µM] | IC50 ([7]; 72 h, read-out: IC50 HeLa 72 h) [µM] | SI (selectivity index) HeLa [7] | IC50 [8, 17] [µM] | other results
CSCCC1NC2(C(=O)Nc3ccccc32)C2(c3ccccc3)C(c3ccccc3)C12c1ccccc1 (stereo not drawn) [Compound 24] | 92 ± 11 | 113 ± 14 | > 40 | > 40 | 1 | > 40 | > 40 | 1 | ≥ 64 | up to 38% | 22 ± 2 | 4 ± 1 | 23 | > 40 | 10 ± 1 | 9 | 20 ± 2 | 8 ± 1 | 12 | > 40 | IC50 [8, 18]: 8 ± 1 µM; SI (selectivity index) Sk-mel-2 [8]: 12
CC(C)C1NC2(C(=O)Nc3ccccc32)C2(c3ccccc3)C(c3ccccc3)C12c1ccccc1 (stereo not drawn) [Compound 8] | 47 ± 5 | 83 ± 7 | > 40 | 11 ± 1 | 4 | > 40 | > 40 | 1 | ≥ 64 | up to 38% | 11 ± 1 | 2 ± 1 | 22 | 25 ± 1 | 6 ± 1 | 7 | > 40 | 8 ± 1 | 6 | 15 ± 1 | IC50 [8, 18]: 8 ± 1 µM; SI (selectivity index) Sk-mel-2 [8]: 6
CC[C@H](C)C1NC2(C(=O)Nc3ccccc32)C2(c3ccccc3)C(C(=O)OC)C12c1ccccc1 (stereo partly drawn) [Compound 4] | 92 ± 9 | 174 ± 17 | > 40 | 21 ± 2 | 4 | > 40 | > 40 | 2 | ≥ 64 | up to 38% | 11 ± 1 | 4 ± 1 | 22 | 32 ± 2 | 6 ± 1 | 14 | > 40 | 9 ± 1 | 11 | > 40 | IC50 [8, 18]: 9 ± 1 µM; SI (selectivity index) Sk-mel-2 [8]: 11
NC(=O)CC1NC2(C(=O)Nc3ccccc32)C2(c3ccccc3)C(c3ccccc3)C12c1ccccc1 (stereo not drawn) [Compound 18] | 12 ± 1 | 29 ± 3 | 27 ± 2 | 10 ± 1 | 1 | > 40 | 14 ± 1 | 1 | ≥ 64 | up to 38% | 6 ± 1 | 2 ± 1 | 6 | 14 ± 2 | 6 ± 1 | 2 | 23 ± 2 | 10 ± 2 | 1 | 29 ± 2 | IC50 [8, 18]: 10 ± 1 µM; SI (selectivity index) Sk-mel-2 [8]: 1
O=C1Nc2ccc([N+](=O)[O-])cc2C12N1CCCC1C1(c3ccccc3)C(c3ccccc3)C12c1ccccc1 (stereo not drawn) [Compound 2] | 84 ± 8 | 121 ± 8 | > 40 | 23 ± 2 | 4 | > 40 | > 40 | 2 | ≥ 64 | up to 38% | 18 ± 2 | 4 ± 1 | 22 | 29 ± 2 | 8 ± 1 | 11 | > 40 | 12 ± 1 | 7 | 14 ± 1 | IC50 [8, 18]: 12 ± 1 µM; SI (selectivity index) Sk-mel-2 [8]: 7
COC(=O)C1C2(c3ccccc3)C(Cc3ccc(O)cc3)NC3(C(=O)Nc4ccccc43)C12c1ccccc1 (stereo not drawn) [Compound 17] | 112 ± 9 | 127 ± 16 | > 40 | 23 ± 2 | 5 | > 40 | > 40 | 2 | ≥ 64 | up to 38% | 12 ± 1 | 8 ± 1 | 15 | 35 ± 5 | 14 ± 1 | 8 | 31 ± 2 | 14 ± 2 | 8 | > 40 | IC50 [8, 18]: 14 ± 2 µM; SI (selectivity index) Sk-mel-2 [8]: 8
